Patent publication EP0358766A1, “METHOD OF STERILIZING PLANT ANTHERS” (VSESOJUZNY NAUCHNO-ISSLEDOVATELSKY INST. SELSKOKHOZYAISTV. …, priority 1988, dated 1989)

Columns and labels:
[1] = tested on: Hirse Sorte Mironovskoye 94; test: Field test of gametocidal activity, millet Mironovskoye 94; format: in vivo; details: for Kornzahl der Rispe bei freier Bestäubung / Kornzahl der Rispe im Isolator / Prozentsatz des Ansetzens von Samen bei freier Bestäubung: Mironovskoye 94, period V, 1% aqueous emulsion, 6 kg/ha in 600 l water; for Prozentsatz des Ansetzens von Samen bei freier Bestäubung: control = 100; for pest or weed control at 6000 g/ha: read-out: Prozentsatz der Sterilität
Excerpt: (§1) Die gametozide Aktivität der erfindungsgemäßen Sterilisationsmittel war in Feldversuchen in verschiedenen bodenklimatischen Zonen mit Teilstücken von 10 m^2 Größe in dreibis viermaliger Wiederholung festgestellt. Jedes Sterilisationsmittel wurde mindenstens 5 Jahre lang geprüft.
(§2) Die Entwicklung der Perioden der Organogenese wird zytologisch überwacht. Die Behandlung von Pflanzen mit dem Sterilisationsmittel erfolgt am Anfang der fünften Periode der Organogenese nach Kupermann.
(§3) Mit dem Ährenschieben verwirklicht man die Isolierung von Hauptähren und anderen Stockwerken in Pergametbeuteln. Bei Weizen und Tritikale werden Einzelisolatoren benutzt. Bei Roggen schließt man je 1 Ähre von […] verschiedenen nebeneinander befindlichen Pflanzen unter einen gemeinsamen Isolator ein. Bei Hirse wird jede Rispe getrennt isoliert. Der Sterilitätsprozentsatz (X) für Weizen, Roggen, Tritikale und Hirse wird nach der Formel [formula] ermittelt.
(§4) Die Kornzahl in nicht isolierten Ähren von Kontrollpflanzen wird bedingt für 100 % Ansetzen bei freier Bestäubung angenommen.
(§5) Um zuverlässige Angaben zu erhalten, verwendet man 20 bis 25 Isolatoren je Wiederholung für Weizen und Tritikale, 10 bis 15 Isolatoren jeder Wiederholung für Roggen und Hirse.
Pflanzen der Hirse Sorte Mironovskoye 94 werden in der V.Periode der Organogenese mit einer 1%igen wäßrigen Emulsion von 1,1,3-Tribrompropan, 1,2,3-Tribrompropan, 1,2-Dibrompropan, 1,2-Dibrom-3-chlorpropan, 1,3-Dibrompropan, 1,1,1,3-Tetrabromheptan, 1,1,3-Tribromheptan, 1,2-Dibromheptan behandelt. Die Emulsion enthält 0,5 Masse% C12-C14--Kalziumalkylbenzolaulfonat und 0,01 Masse% Dimethylsulfoxid als Adjuvans. Der Verbrauch an Präparat beträgt 6 kg/ha bei 600 1 Wasserdurchsatz. Die Prüfergebnisse sind in der Tabelle 15 angegeben. Die gleichen Ergebnisse sind bei der Behandlung der Hirse Sorte Mironovskoye 94 in der VI. Periode der Organogenese erhalten.

[2] = tested on: diploidem Roggen Chulpan; test: Field test of gametocidal activity, diploid rye Chulpan; format: in vivo; details: for Kornzahl der Ähre bei freier Bestäubung / Kornzahl der Ähre im Isolator / Prozentsatz des Ansetzens von Samen bei freier Bestäubung: Chulpan, period V, 1% aqueous emulsion, 10 kg/ha; for Prozentsatz des Ansetzens von Samen bei freier Bestäubung: control = 100; for pest or weed control at 10000 g/ha: read-out: Prozentsatz der Sterilität
[3] = tested on: Sommerweizens Sorte Moskowskaya 35; test: Field test of gametocidal activity, spring wheat Moskowskaya 35; format: in vivo, Weizen; details: for Kornzahl der Ähre bei freier Bestäubung / Kornzahl der Ähre im Isolator / Prozentsatz des Ansetzens von Samen bei freier Bestäubung: Moskowskaya 35, period V, 1% aqueous emulsion, 6 kg/ha in 600 l water; for Prozentsatz des Ansetzens von Samen bei freier Bestäubung: control = 100; for pest or weed control at 6000 g/ha: read-out: Prozentsatz der Sterilität
[4] = tested on: Winterweizens Sorte Mironowskaya 808; test: Field test of gametocidal activity (anther sterilisation), winter wheat Mironowskaya 808; format: in vivo, Weizen; details: for Kornzahl der Ähre bei freier Bestäubung / Kornzahl der Ähre im Isolator / Prozentsatz des Ansetzens von Samen bei freier Bestäubung: Mironowskaya 808, period V of organogenesis, 1% aqueous emulsion, 10 kg/ha; for Prozentsatz des Ansetzens von Samen bei freier Bestäubung: control = 100; for pest or weed control at 1 %, 10000 g/ha: read-out: Prozentsatz der Sterilität %
[5] = tested on: diploidem Roggen Kharkovskaya 55; test: Field test of gametocidal activity, diploid rye Kharkovskaya 55; format: in vivo; details: for Kornzahl der Ähre bei freier Bestäubung / Kornzahl der Ähre im Isolator / Prozentsatz des Ansetzens von Samen bei freier Bestäubung: Kharkovskaya 55, period V, 1% aqueous emulsion, 6 kg/ha in 600 l water; for Prozentsatz des Ansetzens von Samen bei freier Bestäubung: control = 100; for pest or weed control at 6000 g/ha: read-out: Prozentsatz der Sterilität
Excerpt: as §1, §2, §3, §4, §5
Pflanzen von diploidem Roggen Kharkovskaya 55 werden in der V. Periode der Organogenese mit einer l%igen wäßrigen Emulsion von 1,1,3-Tribrompropan, 1,2,3-Tribrompropan, 1,2-Dibrompropan, 1,1,3-Tribrom-3-chlorpropan, 1,2--Dibrom-3-chlorpropan, 1,1,1,3-Tetrabromheptan, 1,1,3-Tribromheptan bzw. 1,2-Dibromheptan behandelt. Die Emulsion enthält 0,5 Masse% C12-C14-Kalziumalkylbenzolsulfonat und 0,01 Masse% Dimethylformamid als Adjuvans. Der Verbrauch an Präparat beträgt 6 kg/ha bei 600 1 Wasserdurchsatz. Die Prüfergebnisse sind in der Tabelle 13 angegeben. Die gleichen Ergebnisse sind bei der Behandlung von diploidem Roggen Kharkovskaya 55 in der VI. Periode der Organogenese erhalten.

SMILES | Kornzahl der Rispe bei freier Bestäubung [1] | Kornzahl der Rispe im Isolator [1] | Prozentsatz des Ansetzens von Samen bei freier Bestäubung [1] | pest or weed control at 6000 g/ha [1] [%] | Kornzahl der Ähre bei freier Bestäubung [2] | Kornzahl der Ähre im Isolator [2] | Prozentsatz des Ansetzens von Samen bei freier Bestäubung [2] | pest or weed control at 10000 g/ha [2] [%] | Kornzahl der Ähre bei freier Bestäubung [3] | Kornzahl der Ähre im Isolator [3] | Prozentsatz des Ansetzens von Samen bei freier Bestäubung [3] | pest or weed control at 6000 g/ha [3] [%] | Kornzahl der Ähre bei freier Bestäubung [4] | Kornzahl der Ähre im Isolator [4] | Prozentsatz des Ansetzens von Samen bei freier Bestäubung [4] | pest or weed control at 1 %, 10000 g/ha [4] [%] | Kornzahl der Ähre bei freier Bestäubung [5] | Kornzahl der Ähre im Isolator [5] | Prozentsatz des Ansetzens von Samen bei freier Bestäubung [5] | pest or weed control at 6000 g/ha [5] [%]
CC(Br)CBr (stereo not shown) [Beispiel 5, 1,2-Dibrompropan] | 160,3 | 0,0 | 65,5% | 100 | 48,2 | 0,0 | 96,2% | 100 | 33,6 | 0,0 | 87,9% | 100 | 36,7 | 0,1 | 98,4% | 99.7 | 42,8 | 0,8 | 94,9% | 98.1
ClCC(Br)CBr (stereo not shown) [Beispiel 7, 1,2-Dibrom-3-chlorpropan] | 202,6 | 0,0 | 82,8% | 100 | 42,5 | 0,0 | 84,8% | 100 | 33,8 | 0,0 | 88,5% | 100 | 33,8 | 0,0 | 90,6% | 100 | 39,5 | 0,0 | 87,6% | 100
